Tested on: fully committed Th1 cells
Test: Secondary repolarisation of sorted IFN-γ (eYFP+) Th1 cells under Th1 conditions in the presence of RAR inhibitor or vehicle
Type: cell-based, mouse
Settings: IFN-γ (eYFP+) Th1 cells sorted day 7, restimulated under Th1 conditions for 5 days with LE540 (1 μM) vs vehicle (DMSO)
Method: Experimental conditions were as follows. Naïve CD4^+CD25^negCD44^loCD62L^hi T-cells were isolated by cell sorting by FACSAria (BD) after enrichment with a CD4^+ T-cell negative selection kit (Miltenyi Biotec). T-cell depleted splenocytes were prepared using a CD3^+ microbead selection kit (Miltenyi Biotec) followed by irradiation at 3000 rad. Naïve CD4+ T-cells were cultured for 3 days with irradiated T-cell-depleted splenocytes at a ratio of 1:5 in the presence of 5 μg/ml of anti-CD3 (145-2C11) under Th0 cell conditions (IL-2 100 IU/ml, anti-IL-4 (11B11) and anti-IFN-γ (XMG 1.2), 10 μg/ml each); Th1 cell conditions (100 IU/ml of IL-2, 10 ng/ml of IL-12, and anti-IL-4); Th2 cell conditions (100 IU/ml of IL-2, 10 ng/ml of IL-4, anti-IL-12 (C17.8), and anti-IFN-γ (XMG 1.2); or Th17 cell conditions, 5 ng/ml TGFβ, 20 ng/ml IL-6, 10 ng/ml IL-1β, anti-IL-4, and anti-IFN-γ). Cells were expanded for an additional 3-4 days. Where indicated, 10 ng/ml IFN-γ or 10 μg/ml anti-IFN-γ was added. In secondary repolarisation assays, where specified, LE540 (1 μM) or DMSO (vehicle control) was added to the media. Cytokines were from R&D. Anti-CD3 was from BioXcell and other antibodies were from BD Biosciences. All cell cultures were performed in complete RPMI containing 10% fetal bovine serum (FBS), 55 µM β-mercaptoethanol, HEPES, non-essential amino acids, glutamine, penicillin and streptomycin.
For analysis of cytokine production, cells were restimulated with 100 ng/ml phorbol 12-myristate 13-acetate (PMA) and 500 ng/ml ionomycin in the presence of monensin for 4-5 h at 37° C. in a tissue culture incubator. Cell surface staining was carried out in PBS with 2% FBS. For live cell analysis or cell sorting, dead cells were excluded by staining with SYTOX blue (Invitrogen). […] Data were collected with a LSR Fortessa (BD) and results were analyzed with FlowJo software (Tree Star). […]

SMILES: CN1c2cc3c(cc2N=C(c2ccc(C(=O)O)cc2)c2ccc4ccccc4c21)C(C)(C)CCC3(C)C [LE540]
- Intracellular IFN-γ expression following PMA and ionomycin stimulation (FIG. 12B): modest reductions in IFN-γ expression
- Intracellular expression of RORγt (flow cytometry, FIG. 4B): emergence of cells co-expressing RORγt
- Intracellular expression of T-bet (flow cytometry, FIG. 4B): down-regulation of T-bet
